Where only a bound is given, the exact number is not on record here.

The test has as its system IFNγ-Induced NO Production. The experiment in a line: Nitric Oxide Suppression Assay (Suppression of IFNγ-Induced NO Production). The note with it: RAW264.7; RAW 264.7 mouse macrophage cells; 2 hour pre-treatment with compound (3 μM to 0.3 nM, 10 point curve); 20 ng/mL interferon gamma, ~18 hour; Griess detection; n=2-3 in duplicates. Format: cell-based. The procedure: RAW 264.7, a mouse macrophage cell line, was obtained from American Type Culture Collection (Manassas Va.) and maintained in the log phase of growth in Dulbecco's Modified Eagle's Medium (DMEM), 10% heat inactivated fetal calf serum and 100 units/mL antibiotic-antimycotic (AA). Cells were cultured and maintained in a humidified incubator at 37° C. under 5% CO2 and 95% air. Cells were sub-cultured every 3 days by scraping and were not used beyond passage 20. All cell culture supplies were obtained from Life Technologies (Grand Island, N.Y.).
RAW 264.7 cells were plated 1 day in advance of experiment at a concentration of 80,000 cells/well onto CellBIND® 96 well plates (Corning, N.Y.) in a total volume of 100 μL. The next day, pre-treat cells with compounds (from 3 μM to 0.3 nM serially diluted in a 10 point curve) from a 10× stock by adding 10 μL per well in complete DMEM media containing 10% fetal calf serum. The plates were centrifuged for 3 minutes at 400×g at room temperature followed by 2 hour incubation at 37° C. The cells were then incubated overnight at 37° C. with 10 μL of the insult, interferon gamma (R&D Systems, Minneapolis, Minn.), from a 10× stock for a final concentration of 20 ng/mL. The plates were centrifuged for 3 minutes at 400×g at room temperature followed by ˜18 hour incubation at 37° C. The following day, transfer 50 μL cell culture supernatant from each well into a clear bottom 96 well plate and follow the instructions from Promega's Griess Detection Kit #G2930 (Madison, Wis.) which involves the addition of 50 μL of the provided sulfanilamide solution for a 5-10 minute incubation at room temperature. Next add 50 μL of the provided N-1-napthylethylenediamine dihydrochloride (NED) solution for a 5-10 minute incubation at room temperature and protected from light. If any air bubbles were introduced into the well, the plates need to be centrifuged for 5 minutes at 400×g at room temperature to avoid interference with absorbance readings. The plates were read for absorbance within 30 minutes with a filter between 520 nm and 550 nm.
For the ability of compounds to suppress the increase in nitric oxide release, the percent maximal intensity of nitric oxide detected in each well was normalized to that induced by the peak value for 20 ng/mL of interferon gamma alone and plotted against the compound concentration to calculate IC50 values and to control for plate-to-plate variability. Concentration-response data were analyzed using GraphPad Prism (San Diego, Calif.); the IC50 values were derived from a single curve fit to the mean data of n=2-3, in duplicates.
All compounds were dissolved in dimethyl sulfoxide at 10 mM stock solutions and tested at a concentration that the dimethyl sulfoxide levels never exceeded 1%.
In general terms: Griess reagent forms a coloured azo dye with nitrite.
Turning to `Cc1nc(-c2ccc(=O)n(C)c2)c2c(n1)[C@@]1(c3ccccc3)C=C(C#N)C(=O)[C@@H](C)[C@@H]1CC2` [Example 44, (6aS,7S,10aR)-2,7-dimethyl-4-(1-methyl-6-oxo-1,6-dihydropyridin-3-yl)-8-oxo-10a-phenyl-5,6,6a,7,8,10a-hexahydrobenzo[h]quinazoline-9-carbonitrile], the IC50 was 51.1 nM.
As for `Cc1nc(-c2ccc3ncccc3c2)c2c(n1)[C@@]1(c3ccccc3)C=C(C#N)C(=O)[C@@H](C)[C@@H]1CC2` [Example 45, (6aS,7S,10aR)-2,7-dimethyl-8-oxo-10a-phenyl-4-(quinolin-6-yl)-5,6,6a,7,8,10a-hexahydrobenzo[h]quinazoline-9-carbonitrile], the figure is 106 nM; as for `CC(=O)OCCc1cccc(-c2nc(C)nc3c2CC[C@H]2[C@H](C)C(=O)C(C#N)=C[C@]32c2ccccc2)c1` [Example 46, 2-{3-[(6aS,7S,10aR)-9-cyano-2,7-dimethyl-8-oxo-10a-phenyl-5,6,6a,7,8,10a-hexahydrobenzo[h]quinazolin-4-yl]phenyl}ethyl acetate], 7.52 nM; as for `Cc1nc(-c2cccc(CCO)c2)c2c(n1)[C@@]1(c3ccccc3)C=C(C#N)C(=O)[C@@H](C)[C@@H]1CC2` [Example 47, (6aS,7S,10aR)-4-[3-(2-hydroxyethyl)phenyl]-2,7-dimethyl-8-oxo-10a-phenyl-5,6,6a,7,8,10a-hexahydrobenzo[h]quinazoline-9-carbonitrile], 18.8 nM.
Regarding `C[C@@H]1C(=O)C(C#N)=C[C@]2(c3ccccc3)c3nn(C(=O)Nc4cccnc4)cc3CC[C@@H]12` [Example 48, (5aS,6S,9aR)-8-cyano-6-methyl-7-oxo-9a-phenyl-N-(pyridin-3-yl)-4,5,5a,6,7,9a-hexahydro-2H-benzo[g]indazole-2-carboxamide], the IC50 was found to be 40.1 nM.
For `C[C@@H]1C(=O)C(C#N)=C[C@]2(c3ccccc3)c3nc(-c4cncnc4)ncc3CC[C@@H]12` [Example 49, (6aS,7S,10aR)-7-methyl-8-oxo-10a-phenyl-2-(pyrimidin-5-yl)-5,6,6a,7,8,10a-hexahydrobenzo[h]quinazoline-9-carbonitrile] the value was 7.15 nM.
For `C[C@@H]1C(=O)C(C#N)=C[C@]2(c3ccc(F)cc3)c3ncncc3CC[C@@H]12` [Example 50, (6aS,7S,10aR)-10a-(4-fluorophenyl)-7-methyl-8-oxo-5,6,6a,7,8,10a-hexahydrobenzo[h]quinazoline-9-carbonitrile], the IC50 turned out to be 10.3 nM.
For `C[C@@H]1C(=O)C(C#N)=C[C@]2(c3ccc(F)cc3)c3nc(-c4cccnc4)ncc3CC[C@@H]12` [Example 51, (6aS,7S,10aR)-10a-(4-fluorophenyl)-7-methyl-8-oxo-2-(pyridin-3-yl)-5,6,6a,7,8,10a-hexahydrobenzo[h]quinazoline-9-carbonitrile] the value was 6.14 nM; for `C[C@@H]1C(=O)C(C#N)=C[C@]2(c3ccccc3)c3nn(C)cc3CC[C@@H]12` [Example 52, (5aS,6S,9aR)-2,6-dimethyl-7-oxo-9a-phenyl-4,5,5a,6,7,9a-hexahydro-2H-benzo[g]indazole-8-carbonitrile], 53.2 nM; for `C[C@@H]1C(=O)C(C#N)=C[C@]2(c3cccc(F)c3)c3n[nH]cc3CC[C@@H]12` [Example 53, (5aS,6S,9aR)-9a-(3-fluorophenyl)-6-methyl-7-oxo-4,5,5a,6,7,9a-hexahydro-2H-benzo[g]indazole-8-carbonitrile], 31.7 nM.
For `C[C@@H]1C(=O)C(C#N)=C[C@]2(c3ccc(F)cc3)c3n[nH]cc3CC[C@@H]12` [Example 54, (5aS,6S,9aR)-9a-(4-fluorophenyl)-6-methyl-7-oxo-4,5,5a,6,7,9a-hexahydro-2H-benzo[g]indazole-8-carbonitrile] the value was 35.5 nM; for `C[C@@H]1C(=O)C(C#N)=C[C@]2(c3cccc(F)c3)c3ncncc3CC[C@@H]12` [Example 55, (6aS,7S,10aR)-10a-(3-fluorophenyl)-7-methyl-8-oxo-5,6,6a,7,8,10a-hexahydrobenzo[h]quinazoline-9-carbonitrile], 11.4 nM; for `COc1ccc([C@]23C=C(C#N)C(=O)[C@@H](C)[C@@H]2CCc2c[nH]nc23)cc1` [Example 58, (5aS,6S,9aR)-9a-(4-methoxyphenyl)-6-methyl-7-oxo-4,5,5a,6,7,9a-hexahydro-2H-benzo[g]indazole-8-carbonitrile], 33.4 nM.
As for `COC(=O)c1cccc([C@]23C=C(C#N)C(=O)[C@@H](C)[C@@H]2CCc2cncnc23)c1` [Example 59, methyl 3-[(6aS,7S,10aR)-9-cyano-7-methyl-8-oxo-6,6a,7,8-tetrahydrobenzo[h]quinazolin-10a(5H)-yl]benzoate], the figure is 6.53 nM; as for `C[C@@H]1C(=O)C(C#N)=C[C@]2(c3cccc(C(=O)O)c3)c3ncncc3CC[C@@H]12` [Example 60, 3-[(6aS,7S,10aR)-9-cyano-7-methyl-8-oxo-6,6a,7,8-tetrahydrobenzo[h]quinazolin-10a(5H)-yl]benzoic acid], above 3000 nM; as for `C[C@@H]1C(=O)C(C#N)=C[C@]2(c3cccc(C(N)=O)c3)c3ncncc3CC[C@@H]12` [Example 61, 3-[(6aS,7S,10aR)-9-cyano-7-methyl-8-oxo-6,6a,7,8-tetrahydrobenzo[h]quinazolin-10a(5H)-yl]benzamide], 591 nM.
For `COC(=O)c1cccc([C@]23C=C(C#N)C(=O)[C@@H](C)[C@@H]2CCc2c[nH]nc23)c1` [Example 62, methyl 3-[(5aS,6S,9aR)-8-cyano-6-methyl-7-oxo-2,4,5,5a,6,7-hexahydro-9aH-benzo[g]indazol-9a-yl]benzoate], the IC50 came out at 39.4 nM.
As for `COC(=O)c1ccc([C@]23C=C(C#N)C(=O)[C@@H](C)[C@@H]2CCc2c[nH]nc23)cc1` [Example 63, methyl 4-[(5aS,6S,9aR)-8-cyano-6-methyl-7-oxo-2,4,5,5a,6,7-hexahydro-9aH-benzo[g]indazol-9a-yl]benzoate], the figure is 26.6 nM.
For `COC(=O)c1ccc([C@]23C=C(C#N)C(=O)[C@@H](C)[C@@H]2CCc2cncnc23)cc1` [Example 64, methyl 4-[(6aS,7S,10aR)-9-cyano-7-methyl-8-oxo-6,6a,7,8-tetrahydrobenzo[h]quinazolin-10a(5H)-yl]benzoate] the value was 11 nM; for `C[C@@H]1C(=O)C(C#N)=C[C@]2(c3ccccc3)c3c(cnn3Cc3ccc(Br)cc3)CC[C@@H]12` [Example 65, (5aS,6S,9aR)-1-(4-bromobenzyl)-6-methyl-7-oxo-9a-phenyl-4,5,5a,6,7,9a-hexahydro-1H-benzo[g]indazole-8-carbonitrile], 109 nM; for `C[C@@H]1C(=O)C(C#N)=C[C@]2(c3ccc(C(=O)O)cc3)c3ncncc3CC[C@@H]12` [Example 66, 4-[(6aS,7S,10aR)-9-cyano-7-methyl-8-oxo-6,6a,7,8-tetrahydrobenzo[h]quinazolin-10a(5H)-yl]benzoic acid], 809 nM.
In the case of `COc1ccc([C@]23C=C(C#N)C(=O)[C@@H](C)[C@@H]2CCc2c(-c4cncnc4)nc(C)nc23)cc1` [Example 67, (6aS,7S,10aR)-10a-(4-methoxyphenyl)-2,7-dimethyl-8-oxo-4-(pyrimidin-5-yl)-5,6,6a,7,8,10a-hexahydrobenzo[h]quinazoline-9-carbonitrile], the IC50 stood at 21.8 nM.
With `Cc1nc(-c2cncnc2)c2c(n1)[C@@]1(c3ccc(F)cc3)C=C(C#N)C(=O)[C@@H](C)[C@@H]1CC2` [Example 68, (6aS,7S,10aR)-10a-(4-fluorophenyl)-2,7-dimethyl-8-oxo-4-(pyrimidin-5-yl)-5,6,6a,7,8,10a-hexahydrobenzo[h]quinazoline-9-carbonitrile], the IC50 was found to be 33.6 nM.
As for `Cc1nc(-c2cncnc2)c2c(n1)[C@@]1(c3cccc(F)c3)C=C(C#N)C(=O)[C@@H](C)[C@@H]1CC2` [Example 69, (6aS,7S,10aR)-10a-(3-fluorophenyl)-2,7-dimethyl-8-oxo-4-(pyrimidin-5-yl)-5,6,6a,7,8,10a-hexahydrobenzo[h]quinazoline-9-carbonitrile], the figure is 35.8 nM; as for `COc1ccc([C@]23C=C(C#N)C(=O)[C@@H](C)[C@@H]2CCc2cncnc23)cc1` [Example 70, (6aS,7S,10aR)-10a-(4-methoxyphenyl)-7-methyl-8-oxo-5,6,6a,7,8,10a-hexahydrobenzo[h]quinazoline-9-carbonitrile], 5.27 nM.

One may read the IC50 as the concentration needed to halve the response being measured.
